From US8173633B2, “Protein kinase C activity enhancer containing alkyl ether derivative or salt thereof” (Toyama Chemical Co., Ltd., priority 2006, dated 2012)

Target: T1, PKCε (Rattus norvegicus, UniProt P09216)
T1 construct: The cerebral cortex was removed from 18-day fetuses of Wistar/ST rats; endogenous in cells; host or cells: primary cultured cerebral cortex cells from 18-day fetuses of Wistar/ST rats
T1 sequence (P09216 1-737): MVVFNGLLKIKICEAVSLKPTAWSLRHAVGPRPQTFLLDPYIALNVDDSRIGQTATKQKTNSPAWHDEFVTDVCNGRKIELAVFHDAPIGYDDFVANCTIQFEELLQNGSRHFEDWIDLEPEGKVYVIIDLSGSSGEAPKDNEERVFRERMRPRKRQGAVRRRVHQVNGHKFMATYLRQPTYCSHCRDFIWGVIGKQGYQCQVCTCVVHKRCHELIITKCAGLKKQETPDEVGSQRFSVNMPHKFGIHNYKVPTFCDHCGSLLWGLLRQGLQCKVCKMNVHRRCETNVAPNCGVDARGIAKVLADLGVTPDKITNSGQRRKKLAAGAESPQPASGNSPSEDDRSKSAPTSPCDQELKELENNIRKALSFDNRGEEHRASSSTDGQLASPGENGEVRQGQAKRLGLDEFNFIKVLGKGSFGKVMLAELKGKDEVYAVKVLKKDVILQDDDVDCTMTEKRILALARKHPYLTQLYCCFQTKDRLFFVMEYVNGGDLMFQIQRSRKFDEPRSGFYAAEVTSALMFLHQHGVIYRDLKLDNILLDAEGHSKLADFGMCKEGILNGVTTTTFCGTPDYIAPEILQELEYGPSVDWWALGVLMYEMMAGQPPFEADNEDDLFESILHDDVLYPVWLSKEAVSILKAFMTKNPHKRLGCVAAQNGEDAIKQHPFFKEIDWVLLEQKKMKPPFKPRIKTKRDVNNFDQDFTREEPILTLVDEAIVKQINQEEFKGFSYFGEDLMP
Assay: PKC activity enhancing effect in cultured cells (PKCε migration from cytosol to membrane fraction, western blotting)
Format: cell-based, Wistar/ST rats
Details: cultured fetal rat cerebral cortex cells, 0.1 μmol/L in terms of T-817, FIG. 1
Method: The PKC activity was determined, according to the method of Etcheberrigaray et al. (Proceedings of the National Academy of Sciences of the United States of America, 2004, Vol. 101, No. 30, p. 11141-11146), as applicable. At the time of activation, PKC migrates from the cytoplasm to membranes. The PKC level in the membrane fraction over that in the cytosol fraction was taken as the index of PKC activation. In this experiment, the activity of PKCε, a known isoform of PKC, was measured.
Cultured cells were prepared following the method of Hirata et al. (J. Pharmacol. Exp. Ther., 2005, Vol. 314, No. 1, p. 252-259). […]
On Day 8 from the start of the culturing, T-817MA was added to the cells to a final concentration of 0.1 μmol/L, in terms of T-817, After this addition, the cells were washed with PBS at 0 (untreated), 1, 2 and 4 hours. […] The protein concentration in the cytosol fraction and the membrane fraction was measured, and the protein content in each sample was adjusted to a certain constant level with the extraction buffer or the extraction buffer containing Triton X-100, These samples were then diluted with electrophoresis buffer containing mercaptoethanol (manufactured by Wako Pure Chemical Industries Ltd.) and SDS-PAGE (40 mA, 30 minutes) was carried on 10% polyacrylamide gel. […]

PKCε migration from the cytoplasm to membranes (index of PKC activation) (2 hours after treatment): migrated from the cytoplasm to membranes
PKCε migration from the cytoplasm to membranes (index of PKC activation) (4 hours after treatment): migrated from the cytoplasm to membranes
Structure (SMILES): O=C(O)/C=C\C(=O)O.OC1CN(CCCOCCc2ccc3sccc3c2)C1 [T-817MA]
